Results as given in patent publication US20230287021A1, “COMPOUNDS, COMPOSITIONS AND METHODS FOR STABILIZING TRANSTHYRETIN AND INHIBITING TRANSTHYRETIN MISFOLDING” (Protego Biopharma, Inc., priority 2020, published 2023).
Counter-ions that a name gives are not always drawn.

test: In vitro rat liver S9 stability assay, formation of tafamidis; assay type: in vitro ADME; conditions: rat liver S9, 37° C., 1 µM test compound
Experimental: The test compound was added to liver S9 and incubated at 37° C. in a water bath at a concentration of 1 µM. At each time point (0, 5, 10, 20, 30 and 60 min), stop solution (tolbutamide plus labetalol) was added to precipitate protein and mixed thoroughly. After centrifugation, an aliquot of supernatant was analyzed by LC-MS/MS. The percentage of formation of active agent was calculated at each time point.

Row | SMILES | Formation of tafamidis at 60 min
1 | Cn1cc(COC(=O)c2ccc3nc(-c4cc(Cl)cc(Cl)c4)oc3c2)cn1 [Compound 128] | C (C is ≥50 to <75%)
2 | CN(CCF)C(=O)c1ccc2nc(-c3cc(Cl)cc(Cl)c3)oc2c1 [Compound 173] | A (A is <25%)
3 | CCN1CCCC1COC(=O)c1ccc2nc(-c3cc(Cl)cc(Cl)c3)oc2c1 (stereo not shown) [Compound 172] | B (B is ≥25 to <50%)
4 | CC(=O)N1CCC(OC(=O)c2ccc3nc(-c4cc(Cl)cc(Cl)c4)oc3c2)C1 (stereo not shown) [Compound 138] | A (A is <25%)
5 | CN1CC(OC(=O)c2ccc3nc(-c4cc(Cl)cc(Cl)c4)oc3c2)CC(F)(F)C1 (stereo not shown) [Compound 171, 5,5-difluoro-1-methylpiperidin-3-yl 2-(3,5-dichlorophenyl)benzo[d]oxazole-6-carboxylate] | C (C is ≥50 to <75%)
6 | O=CN1CCC(OC(=O)c2ccc3nc(-c4cc(Cl)cc(Cl)c4)oc3c2)C1 (stereo not shown) [Compound 150] | B (B is ≥25 to <50%)
7 | C[N+]1([O-])CCC(OC(=O)c2ccc3nc(-c4cc(Cl)cc(Cl)c4)oc3c2)C1 (stereo not shown) [Compound 141, 3-((2-(3,5-dichlorophenyl)benzo[d]oxazole-6-carbonyl)oxy)-1-methylpyrrolidine 1-oxide] | A (A is <25%)
8 | O=C(OC1CCN(CCF)C1)c1ccc2nc(-c3cc(Cl)cc(Cl)c3)oc2c1 (stereo not shown) [Compound 147] | B (B is ≥25 to <50%)
9 | O=C(OC1CCCn2ccnc21)c1ccc2nc(-c3cc(Cl)cc(Cl)c3)oc2c1 (stereo not shown) [Compound 155, 5,6,7,8-tetrahydroimidazo[1,2-a]pyridin-8-yl 2-(3,5-dichlorophenyl)benzo[d]oxazole-6-carboxylate] | D (D is ≥75%)
10 | O=C(OC1CCCN(Cc2ccccc2)C1)c1ccc2nc(-c3cc(Cl)cc(Cl)c3)oc2c1 (stereo not shown) [Compound 164] | B (B is ≥25 to <50%)
11 | CN1CC(OC(=O)c2ccc3nc(-c4cc(Cl)cc(Cl)c4)oc3c2)CCC1=O (stereo not shown) [Compound 162] | B (B is ≥25 to <50%)
12 | O=C(OCC1CCCN1Cc1ccccc1)c1ccc2nc(-c3cc(Cl)cc(Cl)c3)oc2c1 (stereo not shown) [Compound 165] | C (C is ≥50 to <75%)
13 | CN(C)[C@@H]1CC[C@H]1OC(=O)c1ccc2nc(-c3cc(Cl)cc(Cl)c3)oc2c1 [Compound 120] | B (B is ≥25 to <50%)
14 | [2H]C([2H])([2H])N1CCC(OC(=O)c2ccc3nc(-c4cc(Cl)cc(Cl)c4)oc3c2)C1 (stereo not shown) [Compound 140] | A (A is <25%)
15 | CN(C)[C@H]1C[C@@H](OC(=O)c2ccc3nc(-c4cc(Cl)cc(Cl)c4)oc3c2)C1 [Compound 121] | A (A is <25%)
16 | O=C(OC1CCCC1)c1ccc2nc(-c3cc(Cl)cc(Cl)c3)oc2c1 [Compound 184] | B (B is ≥25 to <50%)
17 | CN1CCC(CCCOC(=O)c2ccc3nc(-c4cc(Cl)cc(Cl)c4)oc3c2)C1 (stereo not shown) [Compound 137] | A (A is <25%)
18 | Cc1ncc2n1CCC2OC(=O)c1ccc2nc(-c3cc(Cl)cc(Cl)c3)oc2c1 (stereo not shown) [Compound 159, 3-methyl-6,7-dihydro-5H-pyrrolo[1,2-c]imidazol-7-yl 2-(3,5-dichlorophenyl)benzo[d]oxazole-6-carboxylate hydrochloride] | D (D is ≥75%)

Row | SMILES | Formation of tafamidis at 60 min
19 | CN(CC(F)F)C(=O)c1ccc2nc(-c3cc(Cl)cc(Cl)c3)oc2c1 [Compound 174] | A (A is <25%)
20 | O=C(OCCCc1ccccn1)c1ccc2nc(-c3cc(Cl)cc(Cl)c3)oc2c1 [Compound 106] | D (D is ≥75%)
21 | O=C(OCCCc1ncccn1)c1ccc2nc(-c3cc(Cl)cc(Cl)c3)oc2c1 [Compound 148, 3-(pyrimidin-2-yl)propyl 2-(3,5-dichlorophenyl)benzo[d]oxazole-6-carboxylate] | D (D is ≥75%)
22 | CC[N+]1([O-])CCC(OC(=O)c2ccc3nc(-c4cc(Cl)cc(Cl)c4)oc3c2)C1 (stereo not shown) [Compound 142] | A (A is <25%)
23 | O=C(OC1CCN(C2CC2)C1)c1ccc2nc(-c3cc(Cl)cc(Cl)c3)oc2c1 (stereo not shown) [Compound 115] | D (D is ≥75%)
24 | CN1CCCC1CCOC(=O)c1ccc2nc(-c3cc(Cl)cc(Cl)c3)oc2c1 (stereo not shown) [Compound 122] | A (A is <25%)
25 | CN1CCC(CCOC(=O)c2ccc3nc(-c4cc(Cl)cc(Cl)c4)oc3c2)C1 (stereo not shown) [Compound 126] | A (A is <25%)
26 | O=C(OC1CCn2ccnc21)c1ccc2nc(-c3cc(Cl)cc(Cl)c3)oc2c1 (stereo not shown) [Compound 149] | D (D is ≥75%)
27 | Cn1cnc(COC(=O)c2ccc3nc(-c4cc(Cl)cc(Cl)c4)oc3c2)c1 [Compound 129] | D (D is ≥75%)
28 | CN1CCCC1CCCOC(=O)c1ccc2nc(-c3cc(Cl)cc(Cl)c3)oc2c1 (stereo not shown) [Compound 136] | A (A is <25%)
29 | [2H]C([2H])([2H])N(CCCOC(=O)c1ccc2nc(-c3cc(Cl)cc(Cl)c3)oc2c1)C([2H])([2H])[2H] [Compound 152] | A (A is <25%)
30 | Cn1ccc(CCCOC(=O)c2ccc3nc(-c4cc(Cl)cc(Cl)c4)oc3c2)n1 [Compound 104] | B (B is ≥25 to <50%)
31 | CN(C)[C@H]1C[C@H](OC(=O)c2ccc3nc(-c4cc(Cl)cc(Cl)c4)oc3c2)C1 [Compound 125] | A (A is <25%)
32 | CN(C)[C@H]1CCC[C@H]1OC(=O)c1ccc2nc(-c3cc(Cl)cc(Cl)c3)oc2c1 [Compound 134] | A (A is <25%)
33 | CN(C)[C@H]1C[C@@H]1OC(=O)c1ccc2nc(-c3cc(Cl)cc(Cl)c3)oc2c1 (relative stereo) [Compound 154, trans 2-(dimethylamino)cyclopropyl 2-(3,5-dichlorophenyl)benzo-[d]oxazole-6-carboxylate hydrochloride] | C (C is ≥50 to <75%)
34 | CN1CC(OC(=O)c2ccc3nc(-c4cc(Cl)cc(Cl)c4)oc3c2)C1 [Compound 118] | B (B is ≥25 to <50%)
35 | COc1nc(C)c(COC(=O)c2ccc3nc(-c4cc(Cl)cc(Cl)c4)oc3c2)o1 [Compound 114, (2-methoxy-4-methyloxazol-5-yl)methyl 2-(3,5-dichlorophenyl)-benzo [d] oxazole-6-carboxylate] | A (A is <25%)

Second part, the compound after the results:

Row | Formation of tafamidis at 60 min | SMILES
36 | B (B is ≥25 to <50%) | CC(Cc1cccnc1)OC(=O)c1ccc2nc(-c3cc(Cl)cc(Cl)c3)oc2c1 (stereo not shown) [Compound 168, 1-(pyridin-3-yl)propan-2-yl 2-(3,5-dichlorophenyl)benzo[d]oxazole-6-carboxylate]
37 | C (C is ≥50 to <75%) | O=C(OCc1cncnc1)c1ccc2nc(-c3cc(Cl)cc(Cl)c3)oc2c1 [Compound 133]
38 | C (C is ≥50 to <75%) | O=C(OCc1ccncc1)c1ccc2nc(-c3cc(Cl)cc(Cl)c3)oc2c1 [Compound 109]
39 | B (B is ≥25 to <50%) | CC(Cc1ccncc1)OC(=O)c1ccc2nc(-c3cc(Cl)cc(Cl)c3)oc2c1 (stereo not shown) [Compound 169]
40 | D (D is ≥75%) | O=C(OCc1ccccc1)c1ccc2nc(-c3cc(Cl)cc(Cl)c3)oc2c1 [Compound 186]
41 | C (C is ≥50 to <75%) | O=C(OCCc1ccncc1)c1ccc2nc(-c3cc(Cl)cc(Cl)c3)oc2c1 [Compound 110]
42 | D (D is ≥75%) | O=C(OCCCc1cccnc1)c1ccc2nc(-c3cc(Cl)cc(Cl)c3)oc2c1 [Compound 112]
43 | C (C is ≥50 to <75%) | CC(OC(=O)c1ccc2nc(-c3cc(Cl)cc(Cl)c3)oc2c1)c1ncccn1 (stereo not shown) [Compound 146]
44 | D (D is ≥75%) | O=C(OCCc1cccnc1)c1ccc2nc(-c3cc(Cl)cc(Cl)c3)oc2c1 [Compound 108]
45 | D (D is ≥75%) | O=C(OCCCc1ccncc1)c1ccc2nc(-c3cc(Cl)cc(Cl)c3)oc2c1 [Compound 113]
46 | C (C is ≥50 to <75%) | O=C(OCCc1ccccc1)c1ccc2nc(-c3cc(Cl)cc(Cl)c3)oc2c1 [Compound 187]
47 | D (D is ≥75%) | O=C(OCc1cccnn1)c1ccc2nc(-c3cc(Cl)cc(Cl)c3)oc2c1 [Compound 130]
48 | D (D is ≥75%) | O=C(OCc1cnccn1)c1ccc2nc(-c3cc(Cl)cc(Cl)c3)oc2c1 [Compound 132]
49 | D (D is ≥75%) | Cn1nccc1COC(=O)c1ccc2nc(-c3cc(Cl)cc(Cl)c3)oc2c1 [Compound 127]
50 | D (D is ≥75%) | O=C(OCCc1ccccn1)c1ccc2nc(-c3cc(Cl)cc(Cl)c3)oc2c1 [Compound 105]
51 | C (C is ≥50 to <75%) | O=C(OCc1ccnnc1)c1ccc2nc(-c3cc(Cl)cc(Cl)c3)oc2c1 [Compound 135]
52 | D (D is ≥75%) | O=C(OCc1ccncn1)c1ccc2nc(-c3cc(Cl)cc(Cl)c3)oc2c1 [Compound 131]
53 | C (C is ≥50 to <75%) | Cn1cncc1COC(=O)c1ccc2nc(-c3cc(Cl)cc(Cl)c3)oc2c1 [Compound 123]
54 | D (D is ≥75%) | O=C(OCc1cccnc1)c1ccc2nc(-c3cc(Cl)cc(Cl)c3)oc2c1 [Compound 107]

test: In vitro rat plasma stability assay, formation of tafamidis; assay type: in vitro ADME; conditions: 37° C., 2 µM test compound
Experimental: A stability assay in plasma (rat or human) was used to evaluate the ability of a compound provided herein to convert to an active TTR stabilizer. The test compound was added to plasma and incubated at 37° C. in a water bath at a concentration of 2 µM. At each time point (0, 10, 30, 60 and 120 min or 0, 60, 120, 180 and 240 min), stop solution (tolbutamide plus labetalol) was added to precipitate protein and mixed thoroughly. After centrifugation, an aliquot of supernatant was analyzed by LC-MS/MS. The percentage of formation of active agent was calculated at each time point.

Row | Formation of tafamidis at 120 min | SMILES
55 | A (A is <25%) | O=C(OCCC[P+](c1ccccc1)(c1ccccc1)c1ccccc1)c1ccc2nc(-c3cc(Cl)cc(Cl)c3)oc2c1.[Br-] [Compound 4, (3-(2-(3,5-Dichlorophenyl)benzo[d]oxazole-6-carbonyloxy)propyl) triphenylphosphonium bromide]
